The first data set concerns HBV. The data set can be described thus: HepAD38 antiviral assay: reduction of viral product accumulation. The format is cell-based. The note with it: Hepatitis B virus, 120 h; HepAD38 cells, tetracycline removed; harvest five days after compound addition; viral product (virion DNA by qPCR, or HBsAg/HBeAg by ELISA) reduced by 50% relative to no drug controls. On the procedure:
(§1) Methods: HepAD38 cells were maintained as previously reported (Ladner et al, Antimicrob. Agents Chemother. 1997, 4, 1715). Briefly, cells were passaged upon attaining confluency in DMEM/F12 media in the presence of 10% FBS, Penn/Strep, 250 μg/mL G418, and 1 ug/ml tetracycline. Compounds were screened by first washing cells three times with PBS to remove tetracycline, and plating in 96 well plates at 35,000 cells/well. Compounds dissolved in DMSO were then diluted 1:200 into wells containing cells. Five days after compound addition, material was harvested for analysis. For an extended 8 day analysis, cells were plated and treated as described above, but media and compound were refreshed on day 2 and day 5 post initial treatment.
On harvest day, virion DNA was obtained by lysing with Sidestep Lysis and Stabilization Buffer and then quantified via quantitative real time PCR. Commercially available ELISA kits were used to quantitate the viral proteins HBsAg (Alpco) or HbeAg (US Biological) by following the manufacturer's recommended protocol after diluting samples to match the linear range of their respective assays. Irrespective of readout, compound concentrations that reduce viral product accumulation in the cell lysates or supernatants by 50% relative to no drug controls (EC50) are reported; EC50 ranges are as follows: A<0.1 μM; B 0.1-0.2 μM; C>0.2 μM.
A general note: Real-time PCR tracks product formation cycle by cycle.
Molecule `O=C(Nc1cc(F)c(F)c(F)c1)N1Cc2c(-c3ccc(F)cc3)cnn2[C@H]2CCC[C@H]21` [Example 1] returned an EC50 above 0.2 µM.
`O=C(Nc1ccc(F)c(F)c1)N1Cc2c(-c3ccc(F)cc3)cnn2[C@H]2CCC[C@H]21` [Example 2] yielded an EC50 above 0.2 µM.
Take `O=C(Nc1ccc(F)c(Cl)c1)N1Cc2c(-c3ccc(F)cc3)cnn2[C@H]2CCC[C@H]21` [Example 3]: the EC50 is above 0.2 µM.
On the same count and under the same terms, with `O=C(Nc1cc(F)c(F)c(F)c1)N1Cc2c(N3CCCS3(=O)=O)cnn2[C@H]2CCC[C@H]21` [Example 4] the figure was below 0.1 µM; with `O=C(Nc1ccc(F)c(F)c1)N1Cc2c(N3CCCS3(=O)=O)cnn2[C@H]2CCC[C@H]21` [Example 5], 0.1 to 0.2 µM.
The molecule `O=C(Nc1ccc(F)c(Cl)c1)N1Cc2c(N3CCCS3(=O)=O)cnn2[C@H]2CCC[C@H]21` [Example 6] registered an EC50 below 0.1 µM.
In turn, `O=C(Nc1cc(F)c(F)c(F)c1)N1Cc2c(-c3ccc(F)cc3)cnn2[C@@H]2CCC[C@@H]21` [Example 7] returned a concentration for a half-maximal effect (EC50) of 0.1 to 0.2 µM.
On the same count and under the same terms, with `O=C(Nc1ccc(F)c(F)c1)N1Cc2c(-c3ccc(F)cc3)cnn2[C@@H]2CCC[C@@H]21` [Example 8] the figure was below 0.1 µM; with `O=C(Nc1ccc(F)c(Cl)c1)N1Cc2c(-c3ccc(F)cc3)cnn2[C@@H]2CCC[C@@H]21` [Example 9], above 0.2 µM; with `O=C(Nc1cc(F)c(F)c(F)c1)N1Cc2c(N3CCCS3(=O)=O)cnn2[C@@H]2CCC[C@@H]21` [Example 10], below 0.1 µM.
Still for that read-out and setting: with `O=C(Nc1ccc(F)c(F)c1)N1Cc2c(N3CCCS3(=O)=O)cnn2[C@@H]2CCC[C@@H]21` [Example 11] the figure was below 0.1 µM.
In turn, `O=C(Nc1ccc(F)c(Cl)c1)N1Cc2c(N3CCCS3(=O)=O)cnn2[C@@H]2CCC[C@@H]21` [Example 12] registered a concentration for a half-maximal effect (EC50) below 0.1 µM.
`O=C(Nc1cc(F)c(F)c(F)c1)N1Cc2c(-c3cscn3)cnn2[C@@H]2CCC[C@@H]21` [Example 13] had a 50% effective concentration (EC50) below 0.1 µM.
The same measure, in the same setting: with `O=C(Nc1ccc(F)c(F)c1)N1Cc2c(-c3cscn3)cnn2[C@@H]2CCC[C@@H]21` [Example 14] the figure was below 0.1 µM; with `C[C@@H]1N(c2cnn3c2CN(C(=O)Nc2cc(F)c(F)c(F)c2)[C@H]2CCC[C@H]23)C(=O)OC1(C)C` [Example 15], below 0.1 µM.
Molecule `O=C(Nc1ccc(F)c(F)c1)N1Cc2c(N3CCCS3(=O)=O)cnn2CC12CC2` [Example 16] came in with an EC50 above 0.2 µM.
As for `C[C@@H]1N(c2cnn3c2CN(C(=O)Nc2ccc(F)c(F)c2)[C@H]2CCC[C@H]23)C(=O)OC1(C)C` [Example 17], the EC50 was below 0.1 µM.
Same read-out and setting: with `C[C@@H]1N(c2cnn3c2CN(C(=O)Nc2ccc(F)c(Cl)c2)[C@H]2CCC[C@H]23)C(=O)OC1(C)C` [Example 18] the figure was below 0.1 µM; with `CC1(C)CN(c2cnn3c2CN(C(=O)Nc2cc(F)c(F)c(F)c2)[C@H]2CCC[C@H]23)C(=O)O1` [Example 19], below 0.1 µM; with `CC(C)[C@H]1COC(=O)N1c1cnn2c1CN(C(=O)Nc1cc(F)c(F)c(F)c1)[C@H]1CCC[C@H]12` [Example 26], below 0.1 µM.
Still for that read-out and setting: for `O=C1OCCN1c1cnn2c1CN(C(=O)Nc1cc(F)c(F)c(F)c1)[C@H]1CCC[C@H]12` [Example 36] the value was above 0.2 µM; for `O=C1CCCN1c1cnn2c1CN(C(=O)Nc1cc(F)c(F)c(F)c1)[C@H]1CCC[C@H]12` [Example 37], below 0.1 µM; for `C[C@H]1COC(=O)N1c1cnn2c1CN(C(=O)Nc1cc(F)c(F)c(F)c1)[C@H]1CCC[C@H]12` [Example 38], 0.1 to 0.2 µM.
The same measure, in the same setting: with `O=C(Nc1cc(F)c(F)c(F)c1)N1Cc2c(N3C(=O)O[C@@H]4CCC[C@@H]43)cnn2[C@@H]2CCC[C@@H]21` [Example 39] the figure was below 0.1 µM; with `O=C1OC(c2ccccc2)CN1c1cnn2c1CN(C(=O)Nc1cc(F)c(F)c(F)c1)[C@H]1CCC[C@H]12` (stereo partly drawn) [Example 40], below 0.1 µM; with `COC(=O)Nc1cnn2c1CN(C(=O)Nc1cc(F)c(F)c(F)c1)[C@H]1CCC[C@H]12` [Example 41], above 0.2 µM.
`CCS(=O)(=O)Nc1cnn2c1CN(C(=O)Nc1cc(F)c(F)c(F)c1)[C@H]1CCC[C@H]12` [Example 43]: the EC50 is above 0.2 µM.
Still for that read-out and setting: for `C[C@@H]1CN(c2cnn3c2CN(C(=O)Nc2cc(F)c(F)c(F)c2)[C@H]2CCC[C@H]23)C(=O)O1` [Example 44] the value was below 0.1 µM; for `O=C1OC(c2ccccn2)CN1c1cnn2c1CN(C(=O)Nc1cc(F)c(F)c(F)c1)[C@H]1CCC[C@H]12` (stereo partly drawn) [Example 45], below 0.1 µM; for `O=C1OC(C2CCCC2)CN1c1cnn2c1CN(C(=O)Nc1cc(F)c(F)c(F)c1)[C@H]1CCC[C@H]12` (stereo partly drawn) [Example 46], above 0.2 µM.
Still for that read-out and setting: with `CCC(=O)Oc1cnn2c1CN(C(=O)Nc1cc(F)c(F)c(F)c1)[C@H]1CCC[C@H]12` [Example 47] the figure was above 0.2 µM.
Still for that read-out and setting: for `O=C(Nc1cc(F)c(F)c(F)c1)N1Cc2c(N3C(=O)C[C@@H]4CCC[C@@H]43)cnn2[C@@H]2CCC[C@@H]21` [Example 48] the value was below 0.1 µM; for `O=C(Nc1cc(F)c(F)c(F)c1)N1Cc2c(N3C(=O)C[C@H]4CCC[C@H]43)cnn2[C@@H]2CCC[C@@H]21` [Example 49], 0.1 to 0.2 µM.
Molecule `O=C1CC2(CC2)CN1c1cnn2c1CN(C(=O)Nc1cc(F)c(F)c(F)c1)[C@H]1CCC[C@H]12` [Example 50] had an EC50 below 0.1 µM.
Still for that read-out and setting: for `O=C(Nc1cc(F)c(F)c(F)c1)N1Cc2c(N3C(=O)OC[C@@H]3c3ccccc3)cnn2[C@@H]2CCC[C@@H]21` [Example 52] the value was above 0.2 µM; for `O=C(Nc1cc(F)c(F)c(F)c1)N1Cc2c(N3C(=O)O[C@H]4CCCC[C@@H]43)cnn2[C@@H]2CCC[C@@H]21` [Example 54], below 0.1 µM.
Same read-out and setting: for `O=C1OC2(CC2)CN1c1cnn2c1CN(C(=O)Nc1cc(F)c(F)c(F)c1)[C@H]1CCC[C@H]12` [Example 55] the value was below 0.1 µM.
The molecule `O=C(Nc1cc(F)c(F)c(F)c1)N1Cc2c(N3C(=O)OC[C@@H]3C3CCCC3)cnn2[C@@H]2CCC[C@@H]21` [Example 56] displayed an EC50 of 0.1 to 0.2 µM.
The same measure, in the same setting: for `O=C1OC2(CCCC2)CN1c1cnn2c1CN(C(=O)Nc1cc(F)c(F)c(F)c1)[C@H]1CCC[C@H]12` [Example 57] the value was below 0.1 µM; for `O=C(Nc1cc(F)c(F)c(F)c1)N1Cc2c(N3C(=O)OC[C@@H]3C3CC3)cnn2[C@@H]2CCC[C@@H]21` [Example 58], 0.1 to 0.2 µM.
On to `O=C(Nc1cc(F)c(F)c(F)c1)N1Cc2c(N3C(=O)OC[C@H]3C3CC3)cnn2[C@@H]2CCC[C@@H]21` [Example 59], for which the EC50 was below 0.1 µM.
On the same count and under the same terms, for `O=C(Nc1cc(F)c(F)c(F)c1)N1Cc2c(N3C(=O)OCC34CC4)cnn2[C@@H]2CCC[C@@H]21` [Example 61] the value was 0.1 to 0.2 µM.
In the case of `CCS(=O)(=O)N(C)c1cnn2c1CN(C(=O)Nc1cc(F)c(F)c(F)c1)[C@H]1CCC[C@H]12` [Example 62], the EC50 is above 0.2 µM.
Take `O=C(Nc1cc(F)c(F)c(F)c1)N1Cc2c(N3CCCS3(=O)=O)cnn2[C@@H]2COC[C@@H]21` [Example 63]: the EC50 was above 0.2 µM.
On the same count and under the same terms, for `O=C(Nc1cc(F)c(F)c(F)c1)N1Cc2c(N3C(=O)OC[C@@H]3Cc3ccccc3)cnn2[C@@H]2CCC[C@@H]21` [Example 64] the value was 0.1 to 0.2 µM; for `CC(C)[C@@H]1N(c2cnn3c2CN(C(=O)Nc2cc(F)c(F)c(F)c2)[C@H]2CCC[C@H]23)C(=O)OC1(C)C` [Example 65], below 0.1 µM; for `O=C1OCCCN1c1cnn2c1CN(C(=O)Nc1cc(F)c(F)c(F)c1)[C@H]1CCC[C@H]12` [Example 66], 0.1 to 0.2 µM.
The molecule `CC1(C)CCN(c2cnn3c2CN(C(=O)Nc2cc(F)c(F)c(F)c2)[C@H]2CCC[C@H]23)C(=O)O1` [Example 67] displayed an EC50 below 0.1 µM.
Take `CC(C)C[C@H]1COC(=O)N1c1cnn2c1CN(C(=O)Nc1cc(F)c(F)c(F)c1)[C@H]1CCC[C@H]12` [Example 68]: the EC50 fell in the range of 0.1 to 0.2 µM.
On the same count and under the same terms, with `CC(C)C[C@@H]1N(c2cnn3c2CN(C(=O)Nc2cc(F)c(F)c(F)c2)[C@H]2CCC[C@H]23)C(=O)OC1(C)C` [Example 69] the figure was above 0.2 µM; with `CC1(C)OC(=O)N(c2cnn3c2CN(C(=O)Nc2cc(F)c(F)c(F)c2)[C@H]2CCC[C@H]23)[C@H]1Cc1ccccc1` [Example 70], below 0.1 µM; with `O=C(Nc1cc(F)c(F)c(F)c1)N1Cc2c(N3CCCS3(=O)=O)cnn2C[C@@H]1c1ccccc1` [Example 71], below 0.1 µM.
As to `O=C(Nc1cc(F)c(F)c(F)c1)N1Cc2c(N3CCCS3(=O)=O)cnn2C[C@@H]1c1ncc[nH]1` [Example 74], the EC50 is above 0.2 µM.
On the same count and under the same terms, with `O=C(Nc1cc(F)c(F)c(F)c1)N1Cc2c(N3CCCS3(=O)=O)cnn2C[C@@H]1c1cnco1` [Example 75] the figure was 0.1 to 0.2 µM; with `O=C(Nc1cc(F)c(F)c(F)c1)N1Cc2c(N3CCCS3(=O)=O)cnn2C[C@@H]1c1ccn[nH]1` [Example 76], above 0.2 µM.

System in a further data set: not listed separately
The data set can be described thus: Compound toxicity, ATPLite total ATP levels. The class given is cell-based. The note with it: human, HepAD38 cells; 15,000 cells/well; three days after compound addition; total ATP levels reduced by 50% relative to no drug controls. Here is the method: as §1
Compound toxicity was evaluated by seeding cells at 15,000 cells/well and treating with compound as described above.
(In general: In ATP-based viability assays light output follows the ATP content of the culture.)
With `O=C(Nc1cc(F)c(F)c(F)c1)N1Cc2c(N3CCCS3(=O)=O)cnn2[C@@H]2CCC[C@@H]21` [Example 10], the CC50 at 3 days is above 25 µM.
Still for that read-out and setting: for `O=C(Nc1ccc(F)c(F)c1)N1Cc2c(N3CCCS3(=O)=O)cnn2[C@@H]2CCC[C@@H]21` [Example 11] the value was above 25 µM; for `O=C(Nc1ccc(F)c(Cl)c1)N1Cc2c(N3CCCS3(=O)=O)cnn2[C@@H]2CCC[C@@H]21` [Example 12], above 25 µM; for `C[C@@H]1N(c2cnn3c2CN(C(=O)Nc2cc(F)c(F)c(F)c2)[C@H]2CCC[C@H]23)C(=O)OC1(C)C` [Example 15], above 25 µM.
On the same count and under the same terms, with `C[C@@H]1N(c2cnn3c2CN(C(=O)Nc2ccc(F)c(F)c2)[C@H]2CCC[C@H]23)C(=O)OC1(C)C` [Example 17] the figure was above 25 µM; with `C[C@@H]1N(c2cnn3c2CN(C(=O)Nc2ccc(F)c(Cl)c2)[C@H]2CCC[C@H]23)C(=O)OC1(C)C` [Example 18], above 25 µM.
Same read-out and setting: for `CC1(C)CN(c2cnn3c2CN(C(=O)Nc2cc(F)c(F)c(F)c2)[C@H]2CCC[C@H]23)C(=O)O1` [Example 19] the value was above 25 µM; for `CC(C)[C@H]1COC(=O)N1c1cnn2c1CN(C(=O)Nc1cc(F)c(F)c(F)c1)[C@H]1CCC[C@H]12` [Example 26], above 25 µM.

Usually EC50 stands for the midpoint of the concentration-response curve. Low readings indicate greater potency, high ones weaker potency. As usually defined, the CC50 is the concentration at which the toxic effect on the cells reaches its halfway point. Low readings indicate harm at low concentration, high ones better tolerance by the cells.

The values are drawn from US10729688B2, “Hepatitis B antiviral agents” (Enanta Pharmaceuticals, Inc., priority 2018, dated 2020).
